Data published in patent US8748471B2, “2-alkyl-cycloalk(en)yl-carboxamides” (priority 2004, dated 2014).
Read-outs that look alike come from different tables or passages of the source.

Columns and labels:
[1] = log P determination by HPLC on reverse-phase column (C 18), acidic range pH 2.3 (EEC Directive 79/831 Annex V. A8); format: physicochemical; details: for chromatographic logP: reverse-phase HPLC column (C 18)
Protocol: The stated log P values were determined in accordance with EEC Directive 79/831 Annex V. A8 by HPLC (High Performance Liquid Chromatography) on a reverse-phase column (C 18). Temperature: 43° C. Mobile phases for the determination in the acidic range (pH 2.3): 0.1% aqueous phosphoric acid, acetonitrile; linear gradient from 10% acetonitrile to 90% acetonitrile. Calibration was carried out using unbranched alkan-2-ones (having 3 to 16 carbon atoms) with known log P values (determination of the log P values by the retention times using linear interpolation between two successive alkanones).

[2] = system: Puccinia recondita; experiment: Puccinia test (wheat)/protective; format: in vivo; details: 240 h, protective, application rate 500 g/ha, evaluation 10 days after inoculation, 0% = control, 100% = no infection, read-out: Efficacy in %
Protocol: (§1) To produce a suitable preparation of active compound, 1 part by weight of active compound is mixed with the stated amounts of solvent and emulsifier, and the concentrate is diluted with water to the desired concentration.
To test for protective activity, young plants are sprayed with the preparation of active compound at the stated application rate. After the spray coating has dried on, the plants are sprayed with a conidia suspension of Puccinia recondita. The plants remain in an incubation cabinet at 20° C. and 100% relative atmospheric humidity for 48 hours. The plants are then placed in a greenhouse at a temperature of about 20° C. and a relative atmospheric humidity of 80%.
(§2) Evaluation is carried out 10 days after the inoculation. 0% means an efficacy which corresponds to that of the control, whereas an efficacy of 100% means that no infection is observed.

[3] = system: Venturia inaequalis; experiment: Venturia test (apple)/protective; format: in vivo; details: protective, application rate 100 g/ha, evaluation 10 days after inoculation, 0% = control, 100% = no infection
Protocol: (§3) To produce a suitable preparation of active compound, 1 part by weight of active compound is mixed with the stated amounts of solvents and emulsifier, and the concentrate is diluted with water to the desired concentration.
To test for protective activity, young plants are sprayed with the preparation of active compound at the stated application rate. After the spray coating has dried on, the plants ate inoculated with an aqueous conidia suspension of the apple scab pathogen Venturia inaequalis and then remain in an incubation cabinet as about 20° C. and 100% relative atmospheric humidity for 1 day. The plants are then placed in a greenhouse at about 21° C. and a relative atmospheric humidity of about 90%.
as §2

[4] = system: Podosphaera leucotricha; experiment: Podosphaera test (apple)/protective; format: in vivo; details: protective, application rate 100 g/ha, evaluation 10 days after inoculation, 0% = control, 100% = no infection
Protocol: as §3
To test for protective activity, young plants are sprayed with the preparation of active compound at the stated application rate. After the spray coating has dried on, the plants are inoculated with an aqueous spore suspension of Podosphaera leucotricha. The plants are then placed in a greenhouse at about 23° C. and a relative atmospheric humidity of about 70%.
as §2

[5] = system: Botrytis cinerea; experiment: Botrytis test (bean)/protective; format: in vivo; details: protective, application rate 500 g/ha, evaluation 2 days after inoculation (size of infected areas), 0% = control, 100% = no infection
Protocol: as §3
To test for protective activity, young plants are sprayed with the preparation of active compound at the stated application rate. After the spray coating has dried on 2 small pieces of agar colonized by Botrytis cinerea are placed onto each leaf. The inoculated plants are placed in a dark chamber at about 20° C. and 100% relative atmospheric humidity.
2 days after the inoculation, the size of the infected areas on the leaves is evaluated. 0% means an efficacy which corresponds to that of the control, whereas an efficacy of 100% means that no infection is observed.

[6] = system: Alternaria solani; experiment: Alternaria test (tomato)/protective; format: in vivo; details: protective, application rate 750 g/ha, evaluation 7 days after inoculation, 0% = control, 100% = no infection
Protocol: as §1
To test for protective activity, young tomato plants are sprayed with the preparation of active compound at the stated application rate. 1 day after the treatment, the plants are inoculated with a spore suspension of Alternaria solani and then remain at 100% relative atmospheric humidity and 20° C. for 24 h. The plants then remain at 96% relative atmospheric humidity and a temperature of 20° C.
Evaluation is carried out 7 days after the inoculation. 0% means an efficacy which corresponds to that of the control, whereas an efficacy of 100% means that no infection is observed.

[7] = Table 1 (I-c), pH 2.3, HPLC C18, 43° C., main diastereomer or, where several values in a cell, the individual diastereomers
[8] = pH 2.3, Table 1 (I-c), pH 2.3, HPLC C18, 43° C., main diastereomer or, where several values in a cell, the individual diastereomers, read-out: logP
[9] = Table 3 (I-k), pH 2.3, HPLC C18, 43° C., main diastereomer or the individual diastereomers

| logP [1, 7] | Structure (SMILES) | further results |
| --- | --- | --- |
| 4.66 | CC(C)(C)CCC1CCCCC1NC(=O)C1=C(C(F)(F)F)OCCS1 (mixture of isomers) [I-c-39] | – |
| 4.45 | Cn1cc(C(=O)NC2CCCCC2CCC(C)(C)C)c(C(F)(F)F)n1 (mixture of isomers) [I-c-40] | – |
| 4.88 | Cn1cc(C(=O)NC2CCCCC2CCC(C)(C)C)c(C(F)(F)F)c1 (mixture of isomers) [I-c-41] | – |
| 4.27 | CC(C)(C)CCC1CCCCC1NC(=O)c1nccnc1Cl (mixture of isomers) [I-c-42] | – |
| 4.6 | Cc1nc(C(F)(F)F)c(C(=O)NC2CCCCC2CCC(C)C)s1 (mixture of isomers) [I-c-56] | – |
| 4.19 | CC(C)CCC1CCCCC1NC(=O)c1cn(C)nc1C(F)(F)F (mixture of isomers) [I-c-57] | – |
| 3.76 | CC(C)CCC1CCCCC1NC(=O)c1cccnc1Cl (mixture of isomers) [I-c-58] | – |
| 4.46 | Cc1nc(C(F)F)c(C(=O)NC2CCCCC2CCC(C)C)s1 (mixture of isomers) [I-c-59] | – |
| 3.79 | Cc1nn(C)c(F)c1C(=O)NC1CCCCC1CCC(C)C (mixture of isomers) [I-c-60] | – |
| 4.59 | CC(C)CCC1CCCCC1NC(=O)c1ccccc1C(F)(F)F (mixture of isomers) [I-c-61] | – |
| 3.95 | CC(C)CCC1CCCCC1NC(=O)c1cn(C)nc1C(F)F (mixture of isomers) [I-c-62] | – |
| 3.19 | Cc1nn(C)cc1C(=O)NC1CCCCC1CCC(C)C (mixture of isomers) [I-c-63] | – |
| 4.42 | CC(C)CCC1CCCCC1NC(=O)C1=C(C(F)(F)F)OCCS1 (mixture of isomers) [I-c-64] | – |
| 4.51 | CC1=C(C(=O)NC2CCCCC2CCC(C)C)SCCO1 (mixture of isomers) [I-c-68] | – |
| – | CC(C[Si](C)(C)C)C1CCCCC1NC(=O)c1cn(C)nc1C(F)F (mixture of isomers) [I-k-6] | logP ([1]; pH 2.3): 4.56 |
| – | Cc1nc(C(F)F)c(C(=O)NC2CCCCC2C(C)C[Si](C)(C)C)s1 (mixture of isomers) [I-k-8] | logP ([1]; pH 2.3): 5.13 |
| – | CC(C)CC(C)C1CCCCC1N (stereo not drawn) [2-(1,3-dimethylbutyl)cyclohexanamine] | chromatographic logP ([1]; pH 2.3, text of Example 1, pH 2.3, two values = mixture of diastereomers, read-out: log P (pH 2.3)): 4.07 |
| – | Cc1nn(C)c(F)c1C(=O)NC1CCCCC1C(C)CC(C)C (stereo not drawn) [I-c-1] | pest or weed control at 500 g/ha [2]: 100%; Efficacy in % [3]: 100%; chromatographic logP [1, 8]: 4.15; Efficacy in % [4]: 88% |
| 4.04 | CC(C)CC(C)C1CCCCC1NC(=O)c1cccnc1Cl (stereo not drawn) [I-c-2] | – |
| 4.71 | Cc1nc(C(F)(F)F)c(C(=O)NC2CCCCC2C(C)CC(C)C)s1 (stereo not drawn) [I-c-3] | pest or weed control at 500 g/ha [2]: 100%; chromatographic logP [1, 8]: 4.66 |
| 4.53 | CC(C)CC(C)C1CCCCC1NC(=O)c1cn(C)nc1C(F)(F)F (stereo not drawn) [I-c-6] | Efficacy in % [5]: 90%; pest or weed control at 500 g/ha [2]: 100%; Efficacy in % [3]: 99%; chromatographic logP [1, 8]: 4.1 |
| 5.15 | Cc1ccsc1C(=O)NC1CCCCC1C(C)CC(C)C (stereo not drawn) [I-c-9] | pest or weed control at 500 g/ha [2]: 100%; chromatographic logP [1, 8]: 4.73 |
| 4.83 | CC1=C(C(=O)NC2CCCCC2C(C)CC(C)C)SCCO1 (stereo not drawn) [I-c-10] | Efficacy in % [6]: 100%; pest or weed control at 500 g/ha [2]: 100%; chromatographic logP [1, 8]: 4.52 |
| 4.83 | CC(C)CC(C)C1CCCCC1NC(=O)c1cn(C)cc1C(F)(F)F (stereo not drawn) [I-c-11] | Efficacy in % [5]: 96%; Efficacy in % [3]: 90%; chromatographic logP [1, 8]: 4.45 |
| 4.58 | Cc1occc1C(=O)NC1CCCCC1C(C)CC(C)C (stereo not drawn) [I-c-12] | pest or weed control at 500 g/ha [2]: 100%; chromatographic logP [1, 8]: 4.27 |
| 3.47 | Cc1nn(C)cc1C(=O)NC1CCCCC1C(C)CC(C)C (stereo not drawn) [I-c-14] | Efficacy in % [6]: 100%; pest or weed control at 500 g/ha [2]: 100%; chromatographic logP [1, 8]: 3.18 |
| 4.22 | Cn1cc(C(=O)NC2CCCCC2CCC(C)(C)C)c(C(F)F)n1 (stereo not drawn) [I-c-19] | – |

| logP [1, 7] | Structure (SMILES) | further results |
| --- | --- | --- |
| 4.71 | Cc1nc(C(F)F)c(C(=O)NC2CCCCC2CCC(C)(C)C)s1 (stereo not drawn) [I-c-23] | – |
| 4.72 | Cn1nc(C(F)(F)F)c(C(=O)NC2CCCCC2CCC(C)(C)C)c1F (stereo not drawn) [I-c-24] | – |
| 4.06 | CC1=C(C(=O)NC2CCCCC2C(C)CC(C)C)CCO1 (stereo not drawn) [I-c-26] | – |
| 4.61 | CC(C)CCC1CCCCC1NC(=O)c1cn(C)cc1C(F)(F)F (stereo not drawn) [I-c-69] | – |
| 4.66 | CC(C)CCC1CCCCC1NC(=O)c1ccccc1I (stereo not drawn) [I-c-70] | – |
| 4.8 | CC(C)CCC1CCCCC1NC(=O)c1ccsc1I (stereo not drawn) [I-c-72] | – |
| 4.47 | CC(C)CCC1CCCCC1NC(=O)c1c(C(F)(F)F)nn(C)c1F (stereo not drawn) [I-c-74] | – |
| 4.22 | CC(C)CCCC1CCCCC1NC(=O)c1cccnc1Cl (stereo not drawn) [I-c-75] | – |
| 4.66 | CC(C)CCCC1CCCCC1NC(=O)c1cn(C)nc1C(F)(F)F (stereo not drawn) [I-c-76] | – |
| 4.07 | Cc1nn(C)c(Cl)c1C(=O)NC1CCCCC1CCC(C)C (stereo not drawn) [I-c-77] | – |
| 4.95 | Cc1nc(C(F)F)c(C(=O)NC2CCCCC2CCCC(C)C)s1 (stereo not drawn) [I-c-78] | – |
| 5.06 | Cc1nc(C(F)(F)F)c(C(=O)NC2CCCCC2CCCC(C)C)s1 (stereo not drawn) [I-c-79] | – |
| 4.24 | Cn1cc(C(=O)NC2CCCCC2CCC(C)(C)C)c(C(F)F)n1 (stereo not drawn) [I-c-81] | – |
| 4.72 | Cn1nc(C(F)(F)F)c(C(=O)NC2CCCCC2CCC(C)(C)C)c1F (stereo not drawn) [I-c-82] | – |
| 4.40 | CC(C)CCCC1CCCCC1NC(=O)c1cn(C)nc1C(F)F (stereo not drawn) [I-c-83] | – |
| 4.30 | Cc1nn(C)c(F)c1C(=O)NC1CCCCC1CCCC(C)C (stereo not drawn) [I-c-84] | – |
| 5.05 | CC(C)CCCC1CCCCC1NC(=O)c1cn(C)cc1C(F)(F)F (stereo not drawn) [I-c-86] | – |
| 5.03 | CC(C)(C)CCC1CCCCC1NC(=O)c1sccc1C(F)(F)F (stereo not drawn) [I-c-95] | – |
| 5.03 | CC(C)CC(C)C1CCCCC1NC(=O)c1sccc1C(F)(F)F (stereo not drawn) [I-c-96] | – |
| 4.87 | CC(C)(C)CCC1CCCCC1NC(=O)c1ccsc1C(F)(F)F (stereo not drawn) [I-c-97] | – |
| 4.92 | CC(C)CC(C)C1CCCCC1NC(=O)c1ccsc1C(F)(F)F (stereo not drawn) [I-c-98] | – |
| 5.29 | CC(CC(C)(C)C)C1CCCCC1NC(=O)c1sccc1C(F)(F)F (stereo not drawn) [I-c-99] | – |
| – | Cc1nn(C)c(F)c1C(=O)NC1CCCCC1CC[Si](C)(C)C (stereo not drawn) [I-k-1] | logP [1, 9]: 4.15 |
| – | Cc1nn(C)c(F)c1C(=O)NC1CCCCC1C(C)C[Si](C)(C)C (stereo not drawn) [I-k-2] | logP [1, 9]: 4.51 |
| – | C[Si](C)(C)CCC1CCCCC1NC(=O)c1ccsc1I (stereo not drawn) [I-k-3] | logP ([1]; pH 2.3): 5.13 |
| – | CC(C[Si](C)(C)C)C1CCCCC1NC(=O)c1ccsc1I (stereo not drawn) [I-k-4] | logP ([1]; pH 2.3): 5.44 |

| Structure (SMILES) | logP [1, 7] | further results |
| --- | --- | --- |
| Cc1occc1C(=O)NC1CCCCC1CCC(C)C (mixture of isomers) [I-c-65] | 4.28 | – |
| Cc1occc1C(=O)NC1CCCCC1CCC(C)(C)C (stereo not drawn) [I-c-25] | 4.55 | – |
| CC(C)CCC1CCCCC1NC(=O)c1ccccc1Cl (stereo not drawn) [I-c-71] | 4.54 | – |
